Measured values from article PMC6675120, “Potent and selective inhibitors for M32 metallocarboxypeptidases identified from high-throughput screening of anti-kinetoplastid chemical boxes” (PLoS Neglected Tropical Diseases, 2019).
Where two headings read alike, the source gives them in different places.

Key:
TcMCP-1 = TcMCP-1 (Trypanosoma cruzi, UniProt Q6ZXC0); assay: Continuous fluorogenic (FRET) TcMCP-1 assay with Abz-LKFK(Dnp)-OH, primary and secondary screening; type: biochemical; set-up: inhibition: dose or concentration left out as unconfirmed
TcMCP-1, sequence (Q6ZXC0 entry or part of it): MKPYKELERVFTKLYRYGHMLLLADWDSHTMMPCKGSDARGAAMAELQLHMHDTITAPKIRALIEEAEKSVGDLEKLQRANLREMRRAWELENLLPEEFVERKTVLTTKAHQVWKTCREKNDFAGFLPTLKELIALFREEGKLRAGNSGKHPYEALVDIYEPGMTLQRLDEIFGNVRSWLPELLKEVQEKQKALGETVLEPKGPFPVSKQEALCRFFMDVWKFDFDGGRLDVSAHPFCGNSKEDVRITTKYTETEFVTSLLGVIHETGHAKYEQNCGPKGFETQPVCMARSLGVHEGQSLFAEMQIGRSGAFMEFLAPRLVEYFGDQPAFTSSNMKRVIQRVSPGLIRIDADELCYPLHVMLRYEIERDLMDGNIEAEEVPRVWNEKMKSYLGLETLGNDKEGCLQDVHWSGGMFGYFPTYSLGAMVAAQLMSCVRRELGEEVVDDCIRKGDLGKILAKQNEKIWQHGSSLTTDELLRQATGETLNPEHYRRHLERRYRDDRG
Method: (§1) TcMCP-1 (MEROPS ID: M32.003) and TbMCP-1 were expressed as GST fusion proteins in E. coli BL21 (DE3) Codon Plus and purified as previously described.
(§2) TbMCP-1 and TcMCP-1 activities were assayed fluorometrically with Abz-RFFK(Dnp)-OH and Abz-LKFK(Dnp)-OH substrates, respectively, in 100 mM MOPS pH 7,2 containing 0,01% Triton X-100. Assays were performed in solid black 384-well plates (final reaction volume ~80 μL) and the hydrolysis of the K(Dnp)-OH group was monitored continuously at 30 °C with a Beckman Coulter DTX 880 Multimode Reader (Radnor, Pennsylvania, USA) using standard 320 nm excitation and 420 nm emission filter set.
(§3) In all cases, EDTA (final concentration 31,25 mM) was used as positive inhibition control.
(§4) Then, 40 μL of 100 mM MOPS, 0,01% Triton X-100 pH 7,2 containing TbMCP-1 (2,50 nM) or TcMCP-1 (0,34 nM) were added to each well, plates were homogenized (30 seg, orbital, medium intensity) and each well subjected to a single autofluorescence read (ex/em = 320/420 nm). Plates were incubated in darkness for 15 min at 30 °C and then 40 μL of Abz-RFFK(Dnp)-OH (4 μM) or Abz-LKFK(Dnp)-OH (0,8 μM) in assay buffer were added to each well to start the reaction. After homogenization (30 seg, orbital, medium intensity), the fluorescence of the Abz group (ortho-aminobenzoic acid) (ex/em = 320/420 nm) was acquired kinetically for each well (8 read cycles, one cycle every 300 seconds). Considering our previous experiences, the auto-fluorescent cut-off was arbitrarily set at 2x10^5 RFU to discard highly interfering compounds. All compounds were assayed in singlet (without replicates) due to the limited availability of stocks.
(§5) Raw screening measurements were used to determine the slope (dF/dt) of progression curves by linear regression for control and non-interfering compound wells. In the case of control-dependent hit selection criteria, percent inhibition percentage (%Inh) was calculated for each compound according to the following equation: Inh=100∙[1−(dF/dt^WELL−μ^C−)/(μ^C+−μ^C−)] (1) where dF/dt^WELL represents the slope of each compound well and μ^C+ and μ^C− the average of MCP (no-inhibition) and substrate (no-enzyme) controls, respectively.
(§6) Compounds selected from primary screening were re-tested in a dose-response manner (final concentration ranging from 7,5 to 62,5 μM) using identical assay conditions. To avoid any positional and/or association bias, we randomly defined the row position for each compound. One μL of compounds stock (10 mM in DMSO) and EDTA (31,25 mM) were added to the first well of column 1, followed by addition of 40 μL of 100 mM MOPS, 0,01% Triton X-100 pH 7,2 buffer. After addition of 20 μL of the same buffer to subsequent wells of the plate, 22 serial 2-fold dilutions were made horizontally. The last two positions of every row were used, alternatively, for C^+ and C^− controls to reduce any positional and/or association bias. Then, 20 μL of activity buffer containing TbMCP-1 or TcMCP-1 were added to each well, except for those corresponding to C^−; completed with 20 μL of activity buffer. After homogenization, 15 minutes of incubation at 30°C and autofluorescence measurement, the substrate (in activity buffer) was added to the previous mix. Data collection and processing were performed exactly as described above. Percentage of M32 MCPs residual activity was calculated for each condition according to the following equation: %Res.Act^MCP=100∙[(dF/dt^WELL−μ^C−)/(μ^C+−μ^C−)] (2) where dF/dt^WELL represents the slope of each compound well and μ^C+ and μ^C− the average of MCP (no-inhibition) and substrate (no-enzyme) controls, respectively.

TbMCP-1 = TbMCP-1 (Trypanosoma brucei, UniProt Q386R0); assay: Continuous fluorogenic (FRET) TbMCP-1 assay with Abz-RFFK(Dnp)-OH, primary and secondary screening; type: biochemical
TbMCP-1, sequence (Q386R0 entry or part of it): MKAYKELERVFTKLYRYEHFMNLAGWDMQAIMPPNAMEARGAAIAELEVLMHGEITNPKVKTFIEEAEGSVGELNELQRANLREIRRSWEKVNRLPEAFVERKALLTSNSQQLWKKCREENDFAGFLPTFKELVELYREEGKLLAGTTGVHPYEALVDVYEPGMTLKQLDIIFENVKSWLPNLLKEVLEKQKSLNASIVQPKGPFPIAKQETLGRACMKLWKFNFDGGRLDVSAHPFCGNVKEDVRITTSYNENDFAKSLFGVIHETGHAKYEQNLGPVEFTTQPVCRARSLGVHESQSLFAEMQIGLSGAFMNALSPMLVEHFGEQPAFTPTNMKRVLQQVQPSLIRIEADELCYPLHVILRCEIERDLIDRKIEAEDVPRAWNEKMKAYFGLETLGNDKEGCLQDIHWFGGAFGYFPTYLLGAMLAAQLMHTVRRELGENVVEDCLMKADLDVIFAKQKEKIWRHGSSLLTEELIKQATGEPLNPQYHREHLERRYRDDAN
Method: as §1, §2, §3, §4, §5
as §6, with “To” for “Compounds selected from primary screening were re-tested in a dose-response manner (final concentration ranging from 7,5 to 62,5 μM) using identical assay conditions. To”

NIH 3T3 = tested on: NIH 3T3; set-up: method as in https://pubchem.ncbi.nlm.nih.gov/compound/91800813; conditions: ref https://pubchem.ncbi.nlm.nih.gov/compound/91800813, read-out: cytotoxicity IC50; cited from earlier work
HepG2 = tested on: HepG2; set-up: method as in https://pubchem.ncbi.nlm.nih.gov/compound/91800813; conditions: ref https://pubchem.ncbi.nlm.nih.gov/compound/91800813, read-out: cytotoxicity IC50; cited from earlier work
[1] = target: T. cruzi sterol 14-α demethylase (CYP51); set-up: method as in https://pubchem.ncbi.nlm.nih.gov/compound/91800813; conditions: ref https://pubchem.ncbi.nlm.nih.gov/compound/91800813; cited from earlier work
[2] = four-parameter Hill fit of dose-response curve
[3] = secondary (31,5 µM) / primary (25 µM) inhibition

**Q.** With `N#Cc1ccc(S(=O)(=O)N2CCN(Cc3cccc(-c4ccncc4)c3)CC2)cc1` [TCMDC-143620] as the molecule, how does the IC50 (TcMCP-1) read?
**A.** 0.694 µM

**Q.** And the “TcMCP-1 Hill Slope” value (TcMCP-1; [2])?
**A.** -1,06

**Q.** And the inhibition (TcMCP-1; read-out: TcMCP-1 Secondary screening Inhibition (%))?
**A.** 96.7%

**Q.** What about the “TcMCP-1 2º/1º ratio” value (TcMCP-1; [3]) of the same molecule?
**A.** 1,18

**Q.** What about the IC50 (TcMCP-1; secondary screening, two-fold dilutions 7,5 pM to 62,5 μM, KM/[S] ~ 1, no replicates) of the same molecule?
**A.** ≤ 10 µM

**Q.** And the inhibition at 25 µM (TcMCP-1; single inhibitor concentration 25 µM)?
**A.** 82.1%

**Q.** And the “potency on TbMCP-1 lower than on TcMCP-1” value (TbMCP-1; TbMCP-1 vs TcMCP-1)?
**A.** ~ 7 fold

**Q.** What about the “TbMCP-1 Hill Slope” value (TbMCP-1; [2]) of the same molecule?
**A.** -1,461

**Q.** And the “TbMCP-1 2º/1º ratio” value (TbMCP-1; [3])?
**A.** 2,14

**Q.** What about the inhibition at 25 µM (TbMCP-1; single inhibitor concentration 25 µM, read-out: TbMCP-1 Primary screening Inhibition (%)) of the same molecule?
**A.** 45.2%

**Q.** What about the inhibition (TbMCP-1; single inhibitor concentration 31,5 µM) of the same molecule?
**A.** 96.6%

**Q.** And the IC50 (NIH 3T3)?
**A.** 13 µM

**Q.** What about the IC50 (HepG2) of the same molecule?
**A.** > 100 µM

**Q.** What about the IC50 [1] of the same molecule?
**A.** 0.079 µM
